# In patent US20210213104A1, “GLUCAGON AND GLP-1 CO-AGONISTS FOR THE TREATMENT OF CHRONIC KIDNEY DISEASE AND DIABETIC KIDNEY DISEASE IN TYPE 2 DIABETES” (MEDIMMUNE LIMITED, priority 2020, published 2021):
# “And” between values parts separate entries of the source, which are not always exact repeats. Equal entries are not always repeated.
# Key:
# [1] = test system: subjects with T2DM and renal impairment; test: Phase 2a: eGFR (CKD-EPI equation); assay type: in vivo, human; conditions: Day 33 / after 32 days
# Source text: Inclusion criteria: • Male and female subjects, aged ≥18 years and <85 years at screening; • Body mass index (BMI) between 25 kg/m^2 and 40 kg/m^2 (inclusive) at screening; • HbA1c range of 6.5% to 10.5% (inclusive) at the time of screening; • Diagnosed with T2DM with glucose control managed with any insulin and/or oral therapy combination where no significant dose changes of oral therapy of more than 50% had occurred in the 3 months prior to screening (at least 50% of the subject N=20) enrolled were required to have been taking insulin at a total daily dose of ≥20 units); • Renal impairment with eGFR ≥30 and <60 mL/min/1.73 m^2 at screening. Approximately 16 subjects (40%) were required to have a screening eGFR ≥45 and <60 mL/min/1.73 m^2 (in order to ensure subjects at both ends of the moderate renal impairment spectrum were adequately represented). eGFR was determined by the chronic kidney disease-epidemiology collaboration (CKD-EPI) equation. (eGFR=141×min(SCr/κ, 1)^α×max (SCr/κ, 1)^[…]^Age×1.018 [if female]×1.159 [if Black]; wherein SCr (standardized serum creatinine)=mg/dL, κ=0.7 (females) or 0.9 (males), α=−0.329 (females) or −0.411 (males), min=indicates the minimum of SCr/κ or 1, max=indicates the maximum of SCr/κ or 1, and age=years)
# [2] = test system: subjects with T2DM and renal impairment; test: Phase 2a: fasting glucose blood test; assay type: in vivo, human; conditions: ITT; for Fasting Glucose LS Mean Change / Fasting Glucose Change from Baseline, Mean / Fasting Glucose Change from Baseline, Median / Fasting Glucose Difference in LS Mean Change (vs Placebo): Day 1 to Day 32; for Fasting Glucose LS Mean Change: ANCOVA
# Procedure: (§1) Cotadutide was titrated from 50 μg up to 300 μg and administered once daily by subcutaneous (SC) injection over 32 days.
# (§2) Cotadutide was administered at 50 μg once daily for 4 days, followed by 100 μg daily for 7 days, 200 μg daily for 7 days, and 300 μg daily for 14 days (n=20). Placebo was administered one daily for 32 days (n=20). Cotadutide and placebo were administered in the morning. Dosing commenced following predose baseline vital signs, blood tests (including HbA1c), an electrocardiogram (ECG), body weight measurement, and bioimpedance spectroscopy (BIS). Subjects then returned for daily dosing or remained overnight locally until Day 5, and thereafter, had visits at weekly intervals until a maintenance dose of 300 μg was established. Thus, Cotadutide or placebo was administered at the study site by study personal for the first four doses and on site on Days 5, 12, 19, and 32. At all other times, subjects preformed dosing at home.
# Blood samples were collected to evaluate blood glucose (fasting) and HbA1c levels.
# Fasting glucose was measured from baseline (Day 1) to the end of treatment (Day 32). […] LS mean reduction of fasting glucose from baseline was more apparent in subjects in the Insulin Dose <20 U/day subgroup compared to Insulin Dose ≥20 U/day subgroup.
# [3] = Phase 2a: body weight; assay type: in vivo, human; conditions: for Weight, Absolute Change From Day 1, Difference in LS Mean Change (vs Placebo) / Weight, Absolute Change From Day 1, LS Mean Change / Weight, Percent Change from Day 1, Difference in LS Mean Change (vs Placebo) / Weight, Percent Change from Day 1, LS Mean Change: ANCOVA; for Weight, Absolute Change From Day 1, Difference in LS Mean Change (vs Placebo) / Weight, Absolute Change From Day 1, LS Mean Change / Weight, Percent Change from Day 1, Difference in LS Mean Change (vs Placebo) / Weight, Percent Change from Day 1, LS Mean Change / Weight, Absolute Change From Day 1, Mean / Weight, Absolute Change From Day 1, Median / Weight, Percent Change from Day 1, Mean / Weight, Percent Change from Day 1, Median / Weight, End of Dosing (Day 33), Mean / Weight, End of Dosing (Day 33), Median: ITT
# Procedure: as §1, §2
# Weight was measured after the subject had toileted and removed bulky clothing, including shoes. Whenever possible, the same calibrated scale was used for each measurement for any given subject.
# [4] = test system: diet induced obese (DIO) mice; test: Hyperinsulinemic clamps in diet induced obese (DIO) mice; assay type: in vivo
# Procedure: Following 28 days of daily dosing with Cotadutide (10 nmol/kg), Liraglutide (5 nmol/kg; GLP-1 agonist) or g1437 (5 nmol/kg; a Gcg analog), mice underwent continuous infusion of 4 mU/kg/min insulin and [3H]-glucose to assess glucose turnover. Tissue-specific glucose uptake was assessed using 14C-2-deoxyglucose.
# [5] = Phase 2a: pharmacokinetics in plasma (LC/MS-MS); assay type: in vivo, human
# Procedure: Blood was collected to evaluate to pharmacokinetics (PK) of Cotadutide in plasma. The PK was measured using a validated liquid chromatography-tandem mass spectrometry (LC/MS-MS) method.
# Pharmacokinetic characterization of Cotadutide at 300 μg was obtained using full PK profiles collected during the last day of dosing at 300 μg (Day 32). Additional Ctrough concentrations were collected through the study duration to check exposure.
# [6] = Day 1 to Day 33, Insulin Dose < 20 U/day subgroup
# [7] = Day 1 to Day 33, Insulin Dose ≥ 20 U/day subgroup
# [8] = Insulin Dose < 20 U/day subgroup
# [9] = Insulin Dose ≥ 20 U/day subgroup
compound,measurement,setting,value
CCCCCCCCCCCCCCCC(=O)N[C@@H](CCC(=O)NCCCC[C@H](NC(=O)[C@H](CC(=O)O)NC(=O)[C@H](CO)NC(=O)[C@@H](NC(=O)[C@H](Cc1ccccc1)NC(=O)[C@@H](NC(=O)CNC(=O)[C@H](CCC(N)=O)NC(=O)[C@H](CO)NC(=O)[C@@H](N)Cc1c[nH]cn1)[C@@H](C)O)[C@@H](C)O)C(=O)N[C@@H](CO)C(=O)N[C@@H](CCC(=O)O)C(=O)N[C@@H](Cc1ccc(O)cc1)C(=O)N[C@@H](CC(C)C)C(=O)N[C@@H](CC(=O)O)C(=O)N[C@@H](CO)C(=O)N[C@@H](CCC(=O)O)C(=O)N[C@@H](CCCNC(=N)N)C(=O)N[C@@H](C)C(=O)N[C@@H](CCCNC(=N)N)C(=O)N[C@@H](CC(=O)O)C(=O)N[C@@H](Cc1ccccc1)C(=O)N[C@H](C(=O)N[C@@H](C)C(=O)N[C@@H](Cc1c[nH]c2ccccc12)C(=O)N[C@@H](CC(C)C)C(=O)N[C@@H](CCC(=O)O)C(=O)N[C@@H](C)C(=O)NCC(=O)NCC(=O)O)C(C)C)C(=O)O [Cotadutide],change in eGFR from baseline to end of dosing vs placebo,[1],No statistically significant difference
same,change in eGFR from baseline to end of dosing vs placebo,[1]; listed as cotadutide,no significant changes
same,Fasting Glucose LS Mean Change,[2]; Insulin Dose < 20 U/day,-32.24 mg/dL
same,Fasting Glucose LS Mean Change,[2]; Insulin Dose ≥ 20 U/day,-12.28 mg/dL
same,Fasting Glucose LS Mean Change,[2]; Total,-19.55 mg/dL
same,"Fasting Glucose Change from Baseline, Mean",[2]; Insulin Dose < 20 U/day,-31.79 mg/dL
same,"Fasting Glucose Change from Baseline, Median",[2]; Insulin Dose < 20 U/day,-39.64 mg/dL
same,Fasting Glucose Difference in LS Mean Change (vs Placebo),[2]; Insulin Dose < 20 U/day,-28.11 mg/dL
same,"Fasting Glucose Change from Baseline, Mean",[2]; Insulin Dose ≥ 20 U/day,-9.39 mg/dL
same,"Fasting Glucose Change from Baseline, Median",[2]; Insulin Dose ≥ 20 U/day,-9.01 mg/dL
same,Fasting Glucose Difference in LS Mean Change (vs Placebo),[2]; Insulin Dose ≥ 20 U/day,-15.02 mg/dL
same,"Fasting Glucose Change from Baseline, Mean",[2]; Total,-17.64 mg/dL
same,"Fasting Glucose Change from Baseline, Median",[2]; Total,-19.82 mg/dL
same,Fasting Glucose Difference in LS Mean Change (vs Placebo),[2]; Total,-20.15 mg/dL
same,"Fasting Glucose, Day 32, Mean",[2]; Insulin Dose < 20 U/day,125.75 mg/dL
same,"Fasting Glucose, Day 32, Median",[2]; Insulin Dose < 20 U/day,125.24 mg/dL
same,"Fasting Glucose, Day 32, Mean",[2]; Insulin Dose ≥ 20 U/day,159.03 mg/dL
same,"Fasting Glucose, Day 32, Median",[2]; Insulin Dose ≥ 20 U/day,141.91 mg/dL
same,"Fasting Glucose, Day 32, Mean",[2]; Total,146.77 mg/dL
same,"Fasting Glucose, Day 32, Median",[2]; Total,139.66 mg/dL
same,"weight loss, percentage",[3]; <20 U/day Insulin group,−5.38%
same,"Weight, Absolute Change From Day 1, Difference in LS Mean Change (vs Placebo)",[3]; [6],-3.99 kg
same,"Weight, Absolute Change From Day 1, LS Mean Change",[3]; [6],-4.72 kg
same,"Weight, Percent Change from Day 1, Difference in LS Mean Change (vs Placebo)",[3]; [6],−4.74%
same,"Weight, Percent Change from Day 1, LS Mean Change",[3]; [6],−5.38%
same,"Weight, Absolute Change From Day 1, Mean",[3]; [6],-4.74 kg
same,"Weight, Absolute Change From Day 1, Median",[3]; [6],-4.50 kg
same,"Weight, Percent Change from Day 1, Mean",[3]; [6],−5.26%
same,"Weight, Percent Change from Day 1, Median",[3]; [6],−4.53%
same,"Weight, Absolute Change From Day 1, Difference in LS Mean Change (vs Placebo)",[3]; [7],-2.79 kg
same,"Weight, Absolute Change From Day 1, LS Mean Change",[3]; [7],-2.66 kg
same,"Weight, Percent Change from Day 1, Difference in LS Mean Change (vs Placebo)",[3]; [7],−2.66%
same,"Weight, Percent Change from Day 1, LS Mean Change",[3]; [7],−2.69%
same,"Weight, Absolute Change From Day 1, Mean",[3]; [7],-2.60 kg
same,"Weight, Absolute Change From Day 1, Median",[3]; [7],-1.90 kg
same,"Weight, Percent Change from Day 1, Mean",[3]; [7],−2.61%
same,"Weight, Percent Change from Day 1, Median",[3]; [7],−2.00%
same,"Weight, Absolute Change From Day 1, Difference in LS Mean Change (vs Placebo)","[3]; Day 1 to Day 33, Total",-3.28 kg
same,"Weight, Absolute Change From Day 1, LS Mean Change","[3]; Day 1 to Day 33, Total",-3.41 kg
same,"Weight, Percent Change from Day 1, Difference in LS Mean Change (vs Placebo)","[3]; Day 1 to Day 33, Total",−3.47%
same,"Weight, Percent Change from Day 1, LS Mean Change","[3]; Day 1 to Day 33, Total",−3.69%
same,"Weight, Absolute Change From Day 1, Mean","[3]; Day 1 to Day 33, Total",-3.39 kg
same,"Weight, Absolute Change From Day 1, Median","[3]; Day 1 to Day 33, Total",-3.60 kg
same,"Weight, Percent Change from Day 1, Mean","[3]; Day 1 to Day 33, Total",−3.59%
same,"Weight, Percent Change from Day 1, Median","[3]; Day 1 to Day 33, Total",−3.68%
same,LS mean reduction in absolute body weight,"[3]; Day 1 to Day 33, all subjects",-3.41 kg
same,LS mean reduction in percentage body weight,"[3]; Day 1 to Day 33, all subjects",−3.69% and −3.7%
same,"Weight, End of Dosing (Day 33), Mean",[3]; [8],91.27 kg
same,"Weight, End of Dosing (Day 33), Median",[3]; [8],88.70 kg
same,"Weight, End of Dosing (Day 33), Mean",[3]; [9],94.13 kg
same,"Weight, End of Dosing (Day 33), Median",[3]; [9],96.15 kg
same,"Weight, End of Dosing (Day 33), Mean",[3]; Total,93.08 kg
same,"Weight, End of Dosing (Day 33), Median",[3]; Total,94.10 kg
same,"weight loss, percentage",[3]; ≥20 U/day Insulin group,−2.69%
same,insulin sensitivity,[4],improves insulin sensitivity
same,total insulin levels during the clamp,[4]; 4 mU/kg/min insulin infusion,remained lower
same,glucose uptake in brown adipose tissue,[4]; 14C-2-deoxyglucose,elevated
same,Fasting insulin compared with vehicle,[4]; 28 days daily dosing,dramatically lower
same,glucose disposal rate,[4]; clamp,increased
same,glucose infusion rate to maintain euglycemia ˜130 mg/dL,[4]; clamp,significantly higher
same,AUC,"[5]; human, plasma, 300 ug, Day 32, 300 μg SC, geometric mean, N = 16",286 ng·h/mL
same,Cmax,"[5]; human, plasma, 300 ug, Day 32, 300 μg SC, geometric mean, N = 18",16.9 ng/mL
same,Tmax,"[5]; human, plasma, 300 ug, Day 32, 300 μg SC, median, N = 18",5.6 h
same,PK linearity for Ctrough,[5]; repeat daily SC doses 50 to 300 μg,linear PK
